Target: T1, C. albicans enolase 1 (rCaEno1) (Candida albicans, UniProt P30575)
T1 construct: gene ENO1; full-length, C-terminal His6 tag
Assay: SPR (Biacore T200, immobilized rCaEno1, steady-state affinity); also inhibits transglutaminase activity of purified rCaEno1, IC50 about […], with no significant effect on enolase activity
Assay type: binding

T1 sequence (P30575 whole entry): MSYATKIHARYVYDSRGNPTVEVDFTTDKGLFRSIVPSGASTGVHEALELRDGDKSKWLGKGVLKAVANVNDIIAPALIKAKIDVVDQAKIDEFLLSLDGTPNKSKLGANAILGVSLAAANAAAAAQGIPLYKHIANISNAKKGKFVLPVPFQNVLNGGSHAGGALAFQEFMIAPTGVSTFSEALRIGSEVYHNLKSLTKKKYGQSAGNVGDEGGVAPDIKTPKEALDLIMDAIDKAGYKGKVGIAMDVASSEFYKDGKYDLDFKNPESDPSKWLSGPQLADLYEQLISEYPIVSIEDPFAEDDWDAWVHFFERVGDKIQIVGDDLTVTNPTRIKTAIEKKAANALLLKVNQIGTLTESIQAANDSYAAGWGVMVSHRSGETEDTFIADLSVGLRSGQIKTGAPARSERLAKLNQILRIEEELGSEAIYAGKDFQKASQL

In the case of NCCOCCOCCNC(=O)Cc1ccc(Nc2nc(NCc3ccc(F)cc3)nc(NCC3CCCCC3)n2)cc1 [ENOblock], the Kd is reported as ~300 nM.
